# Test system: Mycobacterium tuberculosis
# Assay: Antimycobacterial activity against Mycobacterium bovis BCG
# Assay type: functional
# Conditions: variant bovis BCG
row,SMILES,MIC
1,Cc1cc(CNC2CCCCC2)c(C)n1-c1ccccc1F,0.5 µg/mL
2,Cc1cc(CNCc2ccccc2)c(C)n1-c1ccc(Cl)cc1,0.5 µg/mL
3,Cc1ccc(C)c(-n2c(C)cc(CNC3CCCCC3)c2C)c1,0.5 µg/mL
4,Cc1cc(CNC2CCCCC2)c(C)n1-c1ccc(C(C)C)cc1,0.25 µg/mL
5,Cc1cc(CNC2CCCCC2)c(C)n1-c1ccccc1C(F)(F)F,2 µg/mL
6,Cc1ccc(C)c(-n2c(C)cc(CNCc3ccccc3)c2C)c1,2 µg/mL
7,Cc1cc(CN[C@H]2C[C@@H]3CC[C@H]2C3)c(C)n1-c1ccc(Cl)cc1,0.25 µg/mL
8,Cc1cc(CNCc2ccccc2)c(C)n1-c1ccc(C(C)C)cc1,1 µg/mL
9,Cc1cc(CNC2CCCCC2)c(C)n1-c1cc(Cl)cc(Cl)c1,0.5 µg/mL
10,COc1ccc(-n2c(C)cc(CNC3CCCCC3)c2C)cc1,0.25 µg/mL
11,Cc1cc(CNC2CCCCC2)c(C)n1-c1ccc(C#N)cc1,1 µg/mL
12,Cc1cc(CNCC2CCCCC2)c(C)n1-c1ccc(Cl)cc1,0.125 µg/mL
13,Cc1cc(CNC2CCCCC2)c(C)n1-c1ccc(F)cc1,0.5 µg/mL
14,Cc1cc(CNC(C)c2ccccc2)c(C)n1-c1ccc(Cl)cc1 (stereo not given),0.5 µg/mL
15,Cc1cc(CNCCNc2ccccc2)c(C)n1-c1ccc(Cl)cc1,1 µg/mL
16,Cc1cc(CNC2CCCCC2)c(C)n1-c1ccc(Cl)cc1,0.4 µg/mL
17,Cc1cc(CNCc2ccccc2)c(C)n1-c1ccc(F)cc1,0.5 µg/mL
18,Cc1cc(CNCc2ccccc2)c(C)n1-c1ccccc1C(F)(F)F,1 µg/mL
19,Cc1cc(CNCc2ccccc2)c(C)n1-c1cc(Cl)cc(Cl)c1,1 µg/mL

# Test system: Mycobacterium tuberculosis
# Assay: Antimycobacterial activity against Mycobacterium bovis BCG assessed as reduction in bacterial growth incubated for 48 hrs by HT-SPOTi assay
# Assay type: functional
# Conditions: variant bovis BCG
row,SMILES,MIC
1,Cc1cc(CNCC2CCCCC2)c(C)n1-c1ccc(Cl)cc1,1.95 µg/mL

# Source: ChEMBL document CHEMBL4613277, “Improving the Potency of N-Aryl-2,5-dimethylpyrroles against Multidrug-Resistant and Intracellular Mycobacteria” (ACS Med Chem Lett, 2020)
